# According to patent publication US8168592B2 (Amgen Inc., priority 2005, dated 2012):
# Assays:
# [1] = in vitro stability in 10% rat plasma, LC-MS/MS; type: in vitro ADME; conditions: room temperature; for % Remaining / remaining at 0.5 h, 100 ng/ml / remaining at 1 h, 100 ng/ml / remaining at 2 h, 100 ng/ml / remaining at 3 h, 100 ng/ml / remaining at 4 h, 100 ng/ml / remaining at 5 h, 100 ng/ml / remaining at 6 h, 100 ng/ml: 100 ng/ml; for % Remaining: 0 h
# Method: (§1) Consequently, the stability of select, non-PEGylated analogs was evaluated in vitro in the presence of 10% rat or human plasma. Briefly, samples of each peptide were diluted to 100 ng/ml into PBS containing 10% of rat or human plasma. Each sample was then incubated at room temperature and analyzed by LC-MS/MS to quantitate the intact peptide remaining at select time points over 6 hours.
# [2] = in vitro stability in 10% human plasma, LC-MS/MS; type: in vitro ADME; conditions: room temperature
# Method: as §1
# [3] = molecular target: T1, CGRP1 receptor (human neuroblastoma cell (SK-N-MC) membrane) (Homo sapiens, UniProt O60894+Q16602); assay: CGRP1 binding assay (125I-hαCGRP displacement)
# T1 construct: human neuroblastoma cell (SK-N-MC) membrane suspension; purchased PerkinElmer; host or cells: SK-N-MC human neuroblastoma cell membranes (endogenous receptor)
# Method: CGRP1 binding experiments. […] The plates were incubated at room temperature for 2 hour with shaking at 60 rpm, then the contents of each well were filtered over 0.5% polyethyleneimine (PEI)-treated (at least one hour) GF/C 96-well filter plates. The GF/C filter plates were washed 6 times with ice-cold 50 mM Tris, pH 7.5 and dried in an oven at 55 C for 1 hour. The bottoms of the GF/C plates were then sealed, and 40 μl Microscint™ 20 was added to each well, then the tops of the GF/C plates were sealed with TopSeal™-A, a press-on adhesive sealing film, and the GF/C plates were counted with TopCount NXT (Packard). The data were analyzed by using ActivityBase (IDBS) or Prizm (GraphPad) software.
# [4] = molecular target: T2, CGRP1 receptor (Homo sapiens, UniProt O60894+Q16602); assay: in vitro CGRP1 receptor mediated cAMP assay in SK-N-MC cells; type: cell-based
# T2 construct: SK-N-MC cells express CRLR and RAMP1, which form CGRP1 receptor; endogenous in cells; host or cells: SK-N-MC human neuroblastoma cells
# Procedure, shortened: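 Human SK-N-MC neuroblastoma cells, which endogenously express CRLR/RAMP1, were plated two days before assay and preincubated in plasma-free medium for 15 minutes at room temperature. Cells were then lysed for 30 minutes at 37° C, and cAMP in the lysates was quantified by competitive cAMP-AP chemiluminescent ELISA.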
# [5] = read-out: time at which 50% remains (converted)
# [6] = read-out: time at which 50% depleted / detectable
# [7] = read-out: time at which 50% depleted
# T1 sequence (Q16602 23-461): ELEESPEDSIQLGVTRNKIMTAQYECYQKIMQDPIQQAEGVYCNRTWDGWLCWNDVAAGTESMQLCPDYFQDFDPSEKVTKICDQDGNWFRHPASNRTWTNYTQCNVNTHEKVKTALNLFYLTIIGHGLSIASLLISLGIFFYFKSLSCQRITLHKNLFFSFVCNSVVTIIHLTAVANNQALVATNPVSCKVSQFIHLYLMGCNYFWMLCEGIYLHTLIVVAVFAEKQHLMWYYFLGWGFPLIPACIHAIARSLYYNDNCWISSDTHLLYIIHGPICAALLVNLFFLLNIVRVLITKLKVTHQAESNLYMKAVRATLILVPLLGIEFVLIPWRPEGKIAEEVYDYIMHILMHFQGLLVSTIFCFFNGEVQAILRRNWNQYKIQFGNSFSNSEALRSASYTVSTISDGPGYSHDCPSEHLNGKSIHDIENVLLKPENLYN
# T1 sequence (O60894 27-148): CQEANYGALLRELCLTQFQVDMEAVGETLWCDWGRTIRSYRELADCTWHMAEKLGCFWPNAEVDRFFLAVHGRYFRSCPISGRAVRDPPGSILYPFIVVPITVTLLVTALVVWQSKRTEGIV
# T2 sequence (Q16602 23-461): as the sequence (Q16602 23-461) above
# T2 sequence (O60894 27-148): as the sequence (O60894 27-148) above
compound,measurement,setting,value
Ac-WVTHQLAGLLSQSGGVVRKNFVPTDVGPFAF-NH2 [SEQ ID NO:39],time at which about 10% of the starting concentration remains,[1],about 5 hours
same,half-life at 100 ng/ml,[1]; [5],~90 min
same,time at which about 10% of the starting concentration remains,[2],about 4 hours
same,half-life at 100 ng/ml,[2]; [5],~60 min
CC(=O)NCSC[C@H](NC(=O)[C@@H](NC(=O)[C@H](C)NC(=O)[C@@H](NC(=O)[C@H](CC(=O)O)NC(=O)[C@H](CO)NC(=O)[C@H](C)N)[C@@H](C)O)[C@@H](C)O)C(=O)N[C@H](C(=O)N[C@H](C(=O)N[C@@H](Cc1c[nH]cn1)C(=O)N[C@@H](CCCNC(=N)N)C(=O)N[C@@H](CC(C)C)C(=O)N[C@@H](C)C(=O)NCC(=O)N[C@@H](CC(C)C)C(=O)N[C@@H](CC(C)C)C(=O)N[C@@H](CO)C(=O)N[C@@H](CCCNC(=N)N)C(=O)N[C@@H](CO)C(=O)NCC(=O)NCC(=O)N[C@H](C(=O)N[C@H](C(=O)N[C@@H](CCCCN)C(=O)N[C@@H](CC(N)=O)C(=O)N[C@@H](CC(N)=O)C(=O)N[C@@H](Cc1ccccc1)C(=O)N[C@H](C(=O)N1CCC[C@H]1C(=O)N[C@H](C(=O)N[C@@H](CC(N)=O)C(=O)N[C@H](C(=O)NCC(=O)N[C@@H](CO)C(=O)N[C@@H](CCCCN)C(=O)N[C@@H](C)C(=O)N[C@@H](Cc1ccccc1)C(N)=O)C(C)C)[C@@H](C)O)C(C)C)C(C)C)C(C)C)[C@@H](C)O)C(C)C [compound 707],Ki,[3]; Table 3B,20.8 nM
CC(C)[C@H](NC(=O)[C@H](CC(=O)O)NC(=O)[C@@H](NC(=O)[C@@H]1CCCN1C(=O)[C@@H](NC(=O)[C@@H](N)Cc1ccccc1)C(C)C)[C@@H](C)O)C(=O)NCC(=O)N1CCC[C@H]1C(=O)N[C@@H](Cc1ccccc1)C(=O)N[C@@H](C)C(=O)N[C@H](Cc1ccccc1)C(N)=O [compound 720],Ki,[3]; Table 3B,> 1000 nM
CC(=O)N[C@@H](Cc1c[nH]c2ccccc12)C(=O)N[C@H](C(=O)N[C@H](C(=O)N[C@@H](Cc1cnc[nH]1)C(=O)N[C@@H](CCCNC(N)=O)C(=O)N[C@@H](CC(C)C)C(=O)N[C@@H](C)C(=O)NCC(=O)N[C@@H](CC(C)C)C(=O)N[C@@H](CC(C)C)C(=O)N[C@@H](CO)C(=O)N[C@@H](CCCNC(N)=O)C(=O)N[C@@H](CO)C(=O)NCC(=O)NCC(=O)N[C@H](C(=O)N[C@H](C(=O)N[C@@H](CCCCNC(=N)N)C(=O)N[C@@H](CCCCN)C(=O)N[C@@H](CC(N)=O)C(=O)N[C@@H](Cc1ccccc1)C(=O)N[C@H](C(=O)N1CCC[C@H]1C(=O)N[C@H](C(=O)N[C@@H](CC(=O)O)C(=O)N[C@H](C(=O)NCC(=O)N1CCC[C@H]1C(=O)N[C@@H](Cc1ccccc1)C(=O)N[C@@H](C)C(=O)N[C@@H](Cc1ccccc1)C(N)=O)C(C)C)[C@@H](C)O)C(C)C)C(C)C)C(C)C)[C@@H](C)O)C(C)C [compound 739],Ki,[3]; Table 3A,0.53 nM
CC(C)[C@H](NC(=O)[C@@H](CC(=O)O)NC(=O)[C@@H](NC(=O)[C@@H]1CCCN1C(=O)[C@@H](NC(=O)[C@@H](N)Cc1ccccc1)C(C)C)[C@@H](C)O)C(=O)NCC(=O)N1CCC[C@H]1C(=O)N[C@@H](Cc1ccccc1)C(=O)N[C@@H](C)C(=O)N[C@@H](Cc1ccccc1)C(N)=O [compound 719],Ki,[3]; Table 3B,> 1000 nM
CC(=O)N[C@@H](Cc1c[nH]c2ccccc12)C(=O)N[C@H](C(=O)N[C@H](C(=O)N[C@@H](Cc1cnc[nH]1)C(=O)N[C@@H](CCCCNC(=N)N)C(=O)N[C@@H](CC(C)C)C(=O)N[C@@H](C)C(=O)NCC(=O)N[C@@H](CC(C)C)C(=O)N[C@@H](CC(C)C)C(=O)N[C@@H](CO)C(=O)N[C@@H](CCCCNC(=N)N)C(=O)N[C@@H](CO)C(=O)NCC(=O)NCC(=O)N[C@H](C(=O)N[C@H](C(=O)N[C@@H](CCCNC(=N)N)C(=O)N[C@@H](CCCCN)C(=O)N[C@@H](CC(N)=O)C(=O)N[C@@H](Cc1ccccc1)C(=O)N[C@H](C(=O)N1CCC[C@H]1C(=O)N[C@H](C(=O)N[C@@H](CC(=O)O)C(=O)N[C@H](C(=O)NCC(=O)N1CCC[C@H]1C(=O)N[C@@H](Cc1ccccc1)C(=O)N[C@@H](C)C(=O)N[C@@H](Cc1ccccc1)C(N)=O)C(C)C)[C@@H](C)O)C(C)C)C(C)C)C(C)C)[C@@H](C)O)C(C)C [SEQ ID NO:25],time at which about 10% of the starting concentration remains,[1],about 5 hours
same,half-life at 100 ng/ml,[1]; [5],~90 min
same,time at which about 10% of the starting concentration remains,[2],about 2 hours
same,half-life at 100 ng/ml,[2]; [6],~30 min
same,reduced antagonist activity relative to the single-substitution analogs,[4]; non-PEGylated double substitution at R11 and R18,about 5 fold
CC(=O)N[C@@H](Cc1c[nH]c2ccccc12)C(=O)N[C@H](C(=O)N[C@H](C(=O)N[C@@H](Cc1cnc[nH]1)C(=O)N[C@@H](CCCN=C(N)N)C(=O)N[C@@H](CC(C)C)C(=O)N[C@@H](C)C(=O)NCC(=O)N[C@@H](CC(C)C)C(=O)N[C@@H](CC(C)C)C(=O)N[C@@H](CO)C(=O)N[C@@H](CCCN=C(N)N)C(=O)N[C@@H](CO)C(=O)NCC(=O)NCC(=O)N[C@H](C(=O)N[C@H](C(=O)N[C@@H](CCCN=C(N)N)C(=O)N[C@@H](CCCCN)C(=O)N[C@@H](CC(N)=O)C(=O)N[C@@H](Cc1ccccc1)C(=O)N[C@H](C(=O)N1CCC[C@H]1C(=O)N[C@H](C(=O)N[C@@H](CC(=O)O)C(=O)N[C@H](C(=O)NCC(=O)N1CCC[C@H]1C(=O)N[C@@H](Cc1ccccc1)C(=O)N[C@@H](C)C(=O)N[C@@H](Cc1ccccc1)C(N)=O)C(C)C)[C@@H](C)O)C(C)C)C(C)C)C(C)C)[C@@H](C)O)C(C)C [SEQ ID NO:7],time at which about 10% of the starting concentration remains,[1],~2.5 h
same,half-life at 100 ng/ml,[1]; [7],~45 min
same,time at which about 10% of the starting concentration remains,[2],about 1 hours
same,half-life at 100 ng/ml,[2]; [6],< 30 min
Ac-WVTHRLAGLLSQSGGVVRKNFVPTDVGPFAF-NH2 [compound 37],% Remaining,[1],100.0%
same,"remaining at 0.5 h, 100 ng/ml",[1],62.7%
same,"remaining at 1 h, 100 ng/ml",[1],39.5%
same,"remaining at 2 h, 100 ng/ml",[1],10.5%
same,"remaining at 3 h, 100 ng/ml",[1],4.7%
same,"remaining at 4 h, 100 ng/ml",[1],2.5%
same,"remaining at 5 h, 100 ng/ml",[1],1.3%
same,"remaining at 6 h, 100 ng/ml",[1],0.7%
Ac-WVTHRLAGLLSQSGGVVRKNFVPTDVGPFAF-NH2 [SEQ ID NO:37],time at which about 10% of the starting concentration remains,[1],~2.5 h
same,half-life at 100 ng/ml,[1]; [7],~45 min
same,time at which about 10% of the starting concentration remains,[2],about 1 hours
same,half-life at 100 ng/ml,[2]; [6],< 30 min
CC(=O)N[C@@H](Cc1c[nH]c2ccccc12)C(=O)N[C@H](C(=O)N[C@H](C(=O)N[C@@H](Cc1cnc[nH]1)C(=O)N[C@@H](CCCN=C(N)N)C(=O)N[C@@H](CC(C)C)C(=O)N[C@@H](C)C(=O)NCC(=O)N[C@@H](CC(C)C)C(=O)N[C@@H](CC(C)C)C(=O)N[C@@H](CO)C(=O)N[C@@H](CCCN=C(N)N)C(=O)N[C@@H](CO)C(=O)NCC(=O)NCC(=O)N[C@H](C(=O)N[C@H](C(=O)N[C@@H](CCCN=C(N)N)C(=O)N[C@@H](CCCCN)C(=O)N[C@@H](CC(N)=O)C(=O)N[C@@H](Cc1ccccc1)C(=O)N[C@H](C(=O)N1CCC[C@H]1C(=O)N[C@H](C(=O)N[C@@H](CC(=O)O)C(=O)N[C@H](C(=O)NCC(=O)N1CCC[C@H]1C(=O)N[C@@H](Cc1ccccc1)C(=O)N[C@@H](C)C(=O)N[C@@H](Cc1ccccc1)C(N)=O)C(C)C)[C@@H](C)O)C(C)C)C(C)C)C(C)C)[C@@H](C)O)C(C)C [compound 7],% Remaining,[1],100.0%
same,"remaining at 0.5 h, 100 ng/ml",[1],55.4%
same,"remaining at 1 h, 100 ng/ml",[1],34.5%
same,"remaining at 2 h, 100 ng/ml",[1],8%
same,"remaining at 3 h, 100 ng/ml",[1],5.2%
same,"remaining at 4 h, 100 ng/ml",[1],1.4%
same,"remaining at 5 h, 100 ng/ml",[1],1.7%
same,"remaining at 6 h, 100 ng/ml",[1],0.6%
same,IC50,"[4]; Table 3, unconjugated CGRP peptide analogs, n = 2-4, read-out: IC50",0.13 nM
